Structures can show the parent of a compound that is named as a salt.
System: HCT 116 cells (human colon carcinoma, ATCC-No. CCl-247)
Assay: Viability assay in HCT 116 cells (CellTiter-Glo Luminescent Cell Viability Assay)
Format: cell-based
Settings: 10 concentrations 30 μM to 0.0015 μM, incubation 120 h (5 days), luminescence (ATP), triplicate
From the text: Viability Assay in HCT 116 Cells
This assay is a homogeneous method of determining the number of viable cells in culture based on quantitation of the ATP present, an indicator of metabolically active cells. The assay is designed for use with multiwell formats, making it ideal for automated high-throughput screening (HTS), cell proliferation and cytotoxicity assays. The homogeneous assay procedure involves adding a single reagent (containing luciferase, luciferan substrate, and buffer) directly to cells cultured in serum-supplemented medium. Cell washing, removal of medium and multiple pipetting steps are not required. The system detects as few as 15 cells/well in a 384-well format in 10 minutes after adding reagent and mixing.
The homogeneous “add-mix-measure” format results in cell lysis and generation of a luminescent signal proportional to the amount of ATP present. The amount of ATP is directly proportional to the number of cells present in culture. The above-referenced assay generates a “glow-type” luminescent signal, produced by the luciferase reaction, which has a half-life generally greater than five hours, depending on cell type and medium used. The extended half-life eliminates the need to use reagent injectors and provides flexibility for continuous or batch mode processing of multiple plates. The unique homogeneous format avoids errors that may be introduced by other ATP measurement methods that require multiple steps.
For the assay the cells were seeded in 384 well plates, 1000 cells per well, in the same medium. […] After 5 days the viability assay was done according to the instructions of the manufacturer. In brief: the cell-plate was equilibrated to room temperature for approximately 30 minutes and then reagent (containing luciferase, luciferan substrate, and buffer) was added. The contents were carefully mixed for 15 minutes to induce cell lysis. After 45 minutes the luminescent signal was measured in Victor 2, (scanning multiwell spectrophotometer, Wallac).
In order to achieve a final concentration of 30 μM as highest concentration […] of 10 mM compound stock solution were added directly to 163 μl media. Then step e) of the dilution procedure described below, was followed.
Analysis: • Add 30 μl of reagent containing luciferase, luciferan substrate, and buffer per well, • shake 15 minutes at room temperature • incubate further 45 minutes at room temperature without shaking
Measurement: • Victor 2 scanning multiwell spectrophotometer (Wallac), Luminescence mode (0.5 sec/read, 477 nm) • Determine IC50 using a non-linear curve fit (XLfit® software [ID Business Solution Ltd., Guilford, Surrey, UK])

| SMILES | IC50 [µM] |
| --- | --- |
| O=C(NS(=O)(=O)C=Cc1ccccc1)c1ccc(Cl)cc1F [Example 1-43, 2-Phenyl-ethenesulfonic acid 4-chloro-2-fluoro-benzoylamide] | 0.5 to 15 |
| COc1cccc(/C=C/S(=O)(=O)NC(=O)c2ccc(F)cc2Cl)c1 [Example 1-14, (E)-2-(3-Methoxy-phenyl)-ethenesulfonic acid 2-chloro-4-fluoro-benzoylamide; sodium salt] | 0.5 to 15 |
| COc1ccccc1/C=C/S(=O)(=O)NC(=O)c1ccc(Br)cc1C [Example 4-8, (E)-2-(2-Methoxy-phenyl)-ethenesulfonic acid 4-bromo-2-methyl-benzoylamide; sodium salt] | 0.5 to 15 |
| COc1cc(Cl)ccc1C(=O)NS(=O)(=O)C=Cc1ccccc1 [Example 6-1, 2-Phenyl-ethenesulfonic acid 4-chloro-2-methoxy-benzoylamide] | 0.5 to 15 |
| Cc1ccc(/C=C/S(=O)(=O)NC(=O)c2ccc(Cl)cc2Cl)c(C)c1 [Example 1-4, (E)-2-(2,4-Dimethyl-phenyl)-ethenesulfonic acid 2,4-dichloro-benzoylamide] | 0.5 to 15 |
| COc1cc(C(F)(F)F)ccc1C(=O)NS(=O)(=O)/C=C/c1ccccc1 [Example 5-6, (E)-2-Phenyl-ethenesulfonic acid 2-methoxy-4-trifluoromethyl-benzoylamide] | 0.5 to 15 |
| O=C(NS(=O)(=O)/C=C/c1ccc(F)cc1F)c1ccc(F)cc1Cl [Example 1-17, (E)-2-(2,4-Difluoro-phenyl)-ethenesulfonic acid 2-chloro-4-fluoro-benzoylamide; sodium salt] | 0.5 to 15 |
| COc1cccc(/C=C/S(=O)(=O)NC(=O)c2ccc(F)cc2Br)c1 [Example 4-18, (E)-2-(3-Methoxy-phenyl)-ethenesulfonic acid 2-bromo-4-fluoro-benzoylamide; sodium salt] | 0.5 to 15 |
| O=C(NS(=O)(=O)/C=C/c1cccc(O)c1)c1ccc(Cl)cc1Cl [Example 1-35, (E)-2-(3-Hydroxy-phenyl)-ethenesulfonic acid 2,4-dichloro-benzoylamide] | 0.5 to 15 |
| COc1cc(Br)ccc1C(=O)NS(=O)(=O)/C=C/c1ccccc1 [Example 5-1, (E)-2-Phenyl-ethenesulfonic acid 4-bromo-2-methoxy-benzoylamide] | 0.5 to 15 |
| Cc1ccc(C(=O)NS(=O)(=O)/C=C/c2ccccc2)c(Br)c1 [Example 6-3, (E)-2-Phenyl-ethenesulfonic acid 2-bromo-4-methyl-benzoylamide; sodium salt] | 0.5 to 15 |
| Cc1ccc(C(=O)NS(=O)(=O)/C=C/c2ccc(Cl)c(Cl)c2)c(C)c1 [Example 4-34, (E)-2-(3,4-Dichloro-phenyl)-ethenesulfonic acid 2,4-dimethyl-benzoylamide; sodium salt] | 0.5 to 15 |
| O=C(NS(=O)(=O)/C=C/c1ccc(Cl)cc1)c1ccc(Cl)cc1Cl [Example 1-1, (E)-2-(4-Chloro-phenyl)-ethenesulfonic acid 2,4-dichloro-benzoylamide] | 8.5 |
| O=C(NS(=O)(=O)/C=C/c1ccc(C(F)(F)F)cc1)c1ccc(Cl)cc1Cl [Example 1-3, (E)-2-(4-Trifluoromethyl-phenyl)-ethenesulfonic acid 2,4-dichloro-benzoylamide] | 0.5 to 15 |
| Cc1ccc(C(=O)NS(=O)(=O)/C=C/c2ccc(OC(F)(F)F)cc2)c(Br)c1 [Example 4-37, (E)-2-(4-Trifluoromethoxyphenyl)-ethenesulfonic acid 2-bromo-4-methyl-benzoylamide; sodium salt] | 0.5 to 15 |
| O=C(NS(=O)(=O)/C=C/c1ccccc1Cl)c1ccc(C(F)(F)F)cc1C(F)(F)F [Example 1-30, (E)-2-(2-Chlorophenyl)-ethenesulfonic acid 2,4-bis-trifluoromethyl-benzoylamide; sodium salt] | 0.5 to 15 |
| O=C(NS(=O)(=O)/C=C/c1ccc(F)cc1F)c1ccc(Cl)cc1Cl [Example 1-8, (E)-2-(2,4-Difluoro-phenyl)-ethenesulfonic acid 2,4-dichloro-benzoylamide] | 0.5 to 15 |
| Cc1cc(Br)ccc1C(=O)NS(=O)(=O)C=Cc1ccccc1Cl [Example 4-10, 2-(2-Chlorophenyl)-ethenesulfonic acid 4-bromo-2-methyl-benzoylamide; sodium salt] | 0.5 to 15 |

| SMILES | IC50 [µM] |
| --- | --- |
| Cc1cc(Cl)ccc1C(=O)NS(=O)(=O)/C=C/c1ccccc1Cl [Example 4-2, (E)-2-(2-Chlorophenyl)-ethenesulfonic acid 4-chloro-2-methyl-benzoylamide; sodium salt] | 0.5 to 15 |
| Cc1cc(Cl)ccc1C(=O)NS(=O)(=O)/C=C/c1ccccc1 [Example 6-6, (E)-2-Phenyl-ethenesulfonic acid 4-chloro-2-methyl-benzoylamide; sodium salt] | 0.5 to 15 |
| O=C(NS(=O)(=O)/C=C/c1ccccc1Cl)c1ccc(Br)cc1Cl [Example 4-28, (E)-2-(2-Chloro-phenyl)-ethenesulfonic acid 4-bromo-2-chloro-benzoylamide; sodium salt] | 0.5 to 15 |
| O=C(NS(=O)(=O)/C=C/c1ccc(OC(F)(F)F)cc1)c1ccc(F)cc1Br [Example 4-22, (E)-2-(4-Trifluoromethoxyphenyl)-ethenesulfonic acid 2-bromo-4-fluoro-benzoylamide; sodium salt] | 0.5 to 15 |
| O=C(NS(=O)(=O)/C=C/c1ccccc1O)c1ccc(Cl)cc1Cl [Example 1-33, (E)-2-(2-Hydroxy-phenyl)-ethenesulfonic acid 2,4-dichloro-benzoylamide] | 0.5 to 15 |
| O=C(NS(=O)(=O)/C=C/c1ccc(OC(F)(F)F)cc1)c1ccc(F)cc1Cl [Example 1-39, (E)-2-(4-Trifluoromethoxyphenyl)-ethenesulfonic acid 2-chloro-4-fluoro-benzoylamide; sodium salt] | 0.5 to 15 |
| COc1ccccc1/C=C/S(=O)(=O)NC(=O)c1ccc(C)cc1C [Example 4-31, (E)-2-(2-Methoxy-phenyl)-ethenesulfonic acid 2,4-dimethyl-benzoylamide; sodium salt] | 0.5 to 15 |
| C/C(=C\S(=O)(=O)NC(=O)c1ccc(Cl)cc1Cl)c1ccccc1 [Example 3-1, (E)-2-Phenyl-propene-1-sulfonic acid 2,4-dichloro-benzoylamide] | 9.2 |
| Cc1ccc(/C=C/S(=O)(=O)NC(=O)c2ccc(F)cc2C(F)(F)F)c(C)c1 [Example 1-20, (E)-2-(2,4-Dimethyl-phenyl)-ethenesulfonic acid 4-fluoro-2-trifluoromethyl-benzoylamide; sodium salt] | 0.5 to 15 |
| COc1ccccc1/C=C/S(=O)(=O)NC(=O)c1ccc(C)cc1Br [Example 4-13, (E)-2-(2-Methoxy-phenyl)-ethenesulfonic acid 2-bromo-4-methyl-benzoylamide; sodium salt] | 0.5 to 15 |
| Cc1ccc(/C=C/S(=O)(=O)NC(=O)c2ccc(C(F)(F)F)cc2C(F)(F)F)c(C)c1 [Example 1-26, (E)-2-(2,4-Dimethyl-phenyl)-ethenesulfonic acid 2,4-bis-trifluoromethyl-benzoylamide; sodium salt] | 0.5 to 15 |
| O=C(NS(=O)(=O)/C=C/c1ccc(C(F)(F)F)cc1)c1ccc(F)cc1Br [Example 4-17, (E)-2-(4-Trifluoromethyl-phenyl)-ethenesulfonic acid 2-bromo-4-fluoro-benzoylamide; sodium salt] | 0.5 to 15 |
| Cc1cc(Br)ccc1C(=O)NS(=O)(=O)/C=C/c1ccc(C(F)(F)F)cc1 [Example 4-35, (E)-2-(4-Trifluoromethyl-phenyl)-ethenesulfonic acid 4-bromo-2-methyl-benzoylamide; sodium salt] | 0.5 to 15 |
| O=C(NS(=O)(=O)/C=C/c1ccccc1)c1ccc(Br)cc1Cl [Example 6-5, (E)-2-Phenyl-ethenesulfonic acid 4-bromo-2-chloro-benzoylamide; sodium salt] | 0.5 to 15 |
| COc1cccc(/C=C/S(=O)(=O)NC(=O)c2ccc(Br)cc2Cl)c1 [Example 4-25, (E)-2-(3-Methoxy-phenyl)-ethenesulfonic acid 4-bromo-2-chloro-benzoylamide; sodium salt] | 0.5 to 15 |
| Cc1ccc(C(=O)NS(=O)(=O)/C=C/c2ccccc2)c(C(F)(F)F)c1 [Example 5-2, (E)-2-Phenyl-ethenesulfonic acid 4-methyl-2-trifluoromethyl-benzoylamide] | 0.5 to 15 |
| O=C(NS(=O)(=O)/C=C/c1c(F)cc(F)cc1F)c1ccc(Cl)cc1Cl [Example 1-36, (E)-2-(2,4,6-Trifluoro-phenyl)-ethenesulfonic acid 2,4-dichloro-benzoylamide; sodium salt] | 0.5 to 15 |
| COc1ccccc1/C=C/S(=O)(=O)NC(=O)c1ccc(Cl)cc1Cl [Example 1-5, (E)-2-(2-Methoxy-phenyl)-ethenesulfonic acid 2,4-dichloro-benzoylamide] | 0.5 to 15 |

— patent US7208526B2, “Styrylsulfonamides” (Hoffmann-La Roche Inc., priority 2005, dated 2007)
